Source: patent US9278925B2, “Substituted 3-(biphenyl-3-yl)-4-hydroxy-8-methoxy-1-azaspiro[4.5]dec-3-en-2-one” (BAYER INTELLECTUAL PROPERTY GMBH, priority 2011, dated 2016)
Where two headings read alike, the source gives them in different places.

Legend:
[1] = Octanol/water distribution coefficient (logP/D), isocratic HPLC method; type: physicochemical; settings: for chromatographic logP: octanol/water, pH 7.4, pH7.4
Text: Assay for Determining the Octanol/Water Distribution Coefficient (logP/D): The distribution coefficient octanol/water P or D is a key parameter for estimating membrane penetration and permeability. It is defined as the ratio of the equilibrium concentrations of a substance in the two-phase system octanol/water. [formula] P=partition D=distribution c(octanol)=concentration of the substance in the octanol phase c(water)=concentration of the substance in the aqueous phase It is usually stated in form of the decadic logarithm (logP or logD). logP describes the distribution behaviour of a substance exclusively present in its neutral form. logD describes the distribution behaviour of a substance at a certain pH; depending on the ionisation constant pKa of the substance, some of the substance may be present in ionic form, and some in neutral form. The logP/D of the active compounds was determined using an isocratic HPLC method (HPLC=high performance liquid chromatography) (literature: OECD Guideline for Testing of Chemicals No. 117). The method is based on the correlation of the HPLC retention time of the test substance to that of reference substances with known distribution coefficients. […] The nine reference substances were dissolved individually in methanol. 100 μl each of the stock solutions were added to an HPLC vial and mixed with 300 μl of water. [table] A formamide solution was used to determine the hold-up time. To this end, 7 mg of formamide were dissolved in 10 ml of methanol. 100 μl of this stock solution were mixed with 500 μl of methanol and 200 μl of water. […] [table] [table] Injection Protocol: formamide, references, test substance 1, test substance 2, . . . , formamide, references. Evaluation of the retention times was carried out in a diode array detector (DAD) at 200-400 nm Via the molecular mass, the identity of the test substance was checked using the downstream mass spectrometer. The HPLC run was evaluated using the Waters software Masslynx 4.1. The logP/D values were calculated using the software “POW Determination” (proprietary development).

[2] = Pharmacokinetic parameters in the rat (i.v. and intragastric); type: in vivo; settings: for clearance / Vd / half-life: male, plasma; for clearance: read-out: CLplasma (converted); for Vd: read-out: Vss; for half-life / t½: terminal; for half-life: read-out: t½ (converted); for F: oral bioavailability
Procedure: Determination of the Pharmacokinetic Parameters of a Test Substance in the Rat and in the Dog For this, the test substances were applied in dissolved form both for intravenous, and for intragastric application, wherein compatible solubilizers such as PEG400 and/or ethanol were used in a compatible amount. […] Administration was as a bolus injection in the male rat and as an infusion in the female dog (15 min) At various time points after the bolus injection, and before and after the 15-minute infusion, blood samples of about 100-150 μl were removed via a catheter either from the jugular vein (rat) or from the saphenous vein (dog). Lithium-heparin was added as anticoagulant to the blood samples and they were stored in a refrigerator until required for further processing. After centrifugation of the samples for 15 min at 3000 rpm, an aliquot of 100 μl was taken from the supernatant (plasma) and was precipitated by adding 400 μl of cold ACN or methanol (absolute). The precipitated samples were frozen-out at […] overnight, then centrifuged again at 3000 rpm for 15 min, before 150 μl of the clear supernatant were removed to determine the concentration. The analysis was effected by means of an Agilent 1200 HPLC system with connected LCMS/MS detection. Calculation of the PK parameters (using PK calculation software, e.g. WinNonLin®): CLplasma: total plasma clearance of the test substance (in 1*kg/h); CLblood: total blood clearance of the test substance (in 1*kg/h), where (CLblood=CLplasma*Cp/Cb); Vss: apparent steady-state distribution volume (in 1/kg); t½: half-life within a specified interval (here: terminal t½, in h); AUCnorm: area under the plasma concentration time profile from time point zero extrapolated to infinity divided by the dose normalized for body weight (in kg*l/h); AUC(0-tn)norm: integrated area under the plasma concentration time profile from time point zero until the last time point at which a plasma concentration was measurable, divided by the dose normalized for body weight (in kg*l/h); Cmax: maximum concentration of the test substance in the plasma (in μg/l); Cmax,norm: maximum concentration of the test substance in the plasma divided by the dose normalized for body weight (in kg/l); Cb/Cp: ratio of the blood to plasma concentration distribution. […] At various time points after administration, blood samples of about 100-150 μl were removed via a catheter either from the jugular vein (rat) or from the saphenous vein (dog). Lithium-heparin was added as anticoagulant to the blood samples and they were stored in a refrigerator until required for further processing. After centrifugation of the samples for 15 min at 3000 rpm, an aliquot of 100 μl was taken from the supernatant (plasma) and was precipitated by adding 400 μl of cold ACN or methanol (absolute). The precipitated samples were frozen-out at −20° C. overnight, then centrifuged at 3000 rpm for 15 min, before 150 μl of the clear supernatant were removed to determine the concentration. The analysis was effected by means of an Agilent 1200 HPLC system with connected LCMS/MS detection. […]

[3] = Plasma protein binding by equilibrium dialysis; type: in vitro ADME
Procedure: The binding of test substances to plasma proteins is determined by equilibrium dialysis by means of the Ht-dialysis apparatus (96-well) made of Teflon and a semipermeable membrane (regenerated cellulose, MWCO 12-14K). This separates 150 μl each of a plasma side and a buffer side (50 mM phosphate buffer). The test substance is added in 2 concentrations (usually 3 and 0.3 μM) to the plasma side and binds to plasma proteins. The unbound fraction of the test substance passes through the membrane and is distributed on either side until equilibrium is established (after approx. 6-8 h at 37° C.). The substance concentration on the buffer side and the plasma side is determined by LC-MS analysis. For this, both sides are brought by dilution with buffer or plasma to the same matrix (10% plasma) and then precipitated with methanol. The free (unbound) fraction (fu) is calculated from the quotient of the buffer and plasma concentration. Stability tests and recovery tests are run concurrently as controls. In addition, the substance in buffer is dialysed against buffer, to check the nonspecific binding to apparatus and membrane and establishment of equilibrium. Because during incubation the osmotic pressure of the plasma proteins leads to dilution of the plasma (volume shift), this possible error is determined by weighing blank plasma samples and is included in the calculation of fu. Establishment of equilibrium and plasma stability should have a value not lower than 80% and the recovery should be at least 30%. A free fraction of <1% is regarded as high, between 1 and 10% as moderate and >10% as low plasma protein binding.

[4] = human plasma, read-out: fu [%] (human)
[5] = mouse plasma, read-out: fu [%] (mouse)
[6] = rat plasma, read-out: fu [%] (rat)

Structure (SMILES) | chromatographic logP [1] | CLblood [2] | clearance ([2]; intravenous) | Vd ([2]; intravenous) | half-life [2] | F [2] | fraction unbound [3, 4] | fraction unbound [3, 5] | fraction unbound [3, 6] | also measured
CO[C@]1(C(F)(F)F)CC[C@]2(CC1)NC(=O)C(c1cc(-c3ccc(Cl)cc3)ccc1C)=C2O [Example 1-1, (5r,8r)-3-(4′-Chloro-4-methylbiphenyl-3-yl)-4-hydroxy-8-methoxy-8-(trifluoromethyl)-1-azaspiro[4.5]dec-3-en-2-one] | 2.44 | 0.183 mL/min/kg | 0.1 mL/min/kg | 0.85 L/kg | 103 h | 163% | 0.002 | 0.0082 | – | –
CO[C@]1(C(F)(F)F)CC[C@]2(CC1)NC(=O)C(c1cc(-c3ccc(Cl)c(F)c3)ccc1C)=C2O [Example 1-2, (5r,8r)-3-(4′-Chloro-3′-fluoro-4-methylbiphenyl-3-yl)-4-hydroxy-8-methoxy-8-(trifluoromethyl)-1-azaspiro[4.5]dec-3-en-2-one] | 2.45 | 0.65 mL/min/kg | 0.483 mL/min/kg | 2.4 L/kg | 65 h | 131% | 0.0026 | 0.014 | – | –
COC[C@]1(OC)CC[C@@]2(CC1)NC(=O)C(c1cc(-c3ccc(Cl)cc3)ccc1C)=C2O [Example 1-3, (5r,8r)-3-(4′-Chloro-4-methylbiphenyl-3-yl)-4-hydroxy-8-methoxy-8-(methoxymethyl)-1-azaspiro[4.5]dec-3-en-2-one] | 2.3 | 0.083 mL/min/kg | – | – | 79 h | 68% | 0.0041 | 0.038 | – | clearance ([2]; iv): 0.0333 mL/min/kg; Vd ([2]; iv): 0.29 L/kg
COC[C@]1(OC)CC[C@@]2(CC1)NC(=O)C(c1cc(-c3ccc(Cl)c(F)c3)ccc1C)=C2O [Example 1-4, (5r,8r)-3-(4′-Chloro-3′-fluoro-4-methylbiphenyl-3-yl)-4-hydroxy-8-methoxy-8-(methoxymethyl)-1-azaspiro[4.5]dec-3-en-2-one] | 2.38 | 0.183 mL/min/kg | 0.117 mL/min/kg | 0.44 L/kg | 51 h | 83% | 0.0037 | 0.0217 | 0.0021 | –
CO[C@]1(C)CC[C@]2(CC1)NC(=O)C(c1cc(-c3ccc(Cl)cc3)ccc1C)=C2O [Example V.1-a, (5r,8r)-3-(4′-Chloro-4-methylbiphenyl-3-yl)-4-hydroxy-8-methoxy-8-methyl-1-azaspiro[4.5]dec-3-en-2-one] | – | – | – | – | – | 83% | – | – | – | logP/D pH7.4 [1]: 2.51; CLplasma [2]: 0.15 mL/min/kg; Vss [2]: 0.3 L/kg; t½ [2]: 28 h; fu [%] (human) [3]: 0.38%; fu [%] (rat) [3]: 0.23%; fu [%] (mouse) ([3]; mouse plasma): 2.49%
CO[C@]1(C)CC[C@]2(CC1)NC(=O)C(c1cc(-c3ccc(Cl)c(F)c3)ccc1C)=C2O [Example V.2-a, (5r,8r)-3-(4′-Chloro-3′-fluoro-4-methylbiphenyl-3-yl)-4-hydroxy-8-methoxy-8-methyl-1-azaspiro[4.5]dec-3-en-2-one] | – | – | – | – | – | 71% | – | – | – | logP/D pH7.4 [1]: 2.52; CLplasma [2]: 0.217 mL/min/kg; Vss [2]: 0.51 L/kg; t½ [2]: 33 h; fu [%] (human) [3]: 0.39%; fu [%] (rat) [3]: 0.23%; fu [%] (mouse) ([3]; mouse plasma): 2.8%
Cc1ccc(-c2ccc(Cl)cc2)cc1C1=C(O)[C@]2(CC[C@](O)(C(F)(F)F)CC2)NC1=O [V.1-c, (5r,8r)-3-(4′-Chloro-4-methylbiphenyl-3-yl)-4,8-dihydroxy-8-(trifluoromethyl)-1-azaspiro[4.5]dec-3-en-2-one] | 1.6 | – | – | – | – | – | – | – | – | –
Cc1ccc(-c2ccc(Cl)c(F)c2)cc1C1=C(O)[C@]2(CC[C@](O)(C(F)(F)F)CC2)NC1=O [V.2-c, (5r,8r)-3-(4′-Chloro-3′-fluoro-4-methylbiphenyl-3-yl)-4,8-dihydroxy-8-(trifluoromethyl)-1-azaspiro[4.5]dec-3-en-2-one] | 1.3 | – | – | – | – | – | – | – | – | –
COC[C@H]1CC[C@]2(CC1)NC(=O)C(c1cc(-c3ccc(Cl)cc3)ccc1C)=C2O [V.3-b, (5s,8s)-3-(4′-Chloro-4-methylbiphenyl-3-yl)-4-hydroxy-8-(methoxymethyl)-1-azaspiro[4.5]dec-3-en-2-one] | 2.5 | – | – | – | – | – | 0.0036 | 0.109 | 0.0779 | –
COC[C@H]1CC[C@]2(CC1)NC(=O)C(c1cc(-c3ccc(Cl)c(F)c3)ccc1C)=C2O [V.4-b, (5s,8s)-3-(4′-Chloro-3′-fluoro-4-methylbiphenyl-3-yl)-4-hydroxy-8-(methoxymethyl)-1-azaspiro[4.5]dec-3-en-2-one] | 2.57 | – | – | – | – | – | 0.0141 | 0.0176 | 0.0011 | fu ratio mouse/human ([3]; mouse and human, plasma, Table 5): 1
